Values joined by “and” are separate entries in the source; they are usually repeats but may differ in a detail not shown here. Identical values can stand only once. Counter-ions that a name gives are not always drawn. Like-named read-outs stand apart in the source and are kept apart here.
How the values were obtained:
Assay type in all cases: cell-based, Mycobacterium tuberculosis
[1] = system: 33 isolates of M. tuberculosis
[2] = system: M. tuberculosis isolates
[3] = system: M. tuberculosis isolates; remark: listed apart in the source
[4] = system: clinical MDR strain (INH, RIF, EMB, STR resistant)

| Compound | D29 phage assay Resistant (n isolates) [1] | D29 phage assay susceptible (n isolates) [1] | ΔCt of D29 phage assay resistant isolates [1] | Agar proportion Resistant (n isolates) [2] | Agar proportion susceptible (n isolates) [2] | number of phage / real-time PCR Ct value after drug pre-treatment [4] | further results |
| --- | --- | --- | --- | --- | --- | --- | --- |
| NCC[C@H](O)C(=O)N[C@@H]1C[C@H](N)[C@@H](O[C@H]2O[C@H](CN)[C@@H](O)[C@H](O)[C@H]2O)[C@H](O)[C@H]1O[C@H]1O[C@H](CO)[C@@H](O)[C@H](N)[C@H]1O [Amikacin, amikacin] | 1(−2.9) and 1(2.4) | 0 | 1(−2.9) and 1(2.4) | 1(16) and 1(8) | 0 | – | D29 phage assay Resistant (n isolates) ([1]; listed as AMK): 0; Agar proportion Resistant (n isolates) ([2]; listed as AMK): 0; MIC of agar proportion resistant isolates [3]: 1(16) μg/ml and 1(8) μg/ml |
| NNC(=O)c1ccncc1 [Isoniazid, isoniazid] | – | 0 | – | – | 0 | the phage number increased/Ct value decreased | D29 phage assay Resistant (n isolates) ([1]; listed as INH): 1 and 2 |
| capreomycin sulfate | 1(−5.4) and 1(−3.3) | 0 | 1(−5.4) and 1(−3.3) | 1(ND) | 0 | – | D29 phage assay Resistant (n isolates) ([1]; listed as CAP): 1; ΔCt of D29 phage assay resistant isolates ([1]; listed as CAP): −5.4; Agar proportion Resistant (n isolates) ([2]; listed as CAP): 0 |
| CC[C@@H](CO)NCCN[C@@H](CC)CO [Ethambutol, ethambutol hydrochloride] | – | – | – | – | – | – | D29 phage assay Resistant (n isolates) ([1]; listed as EMB, hydrochloride): 0; Agar proportion Resistant (n isolates) ([2]; listed as EMB, hydrochloride): 0 |
| CO[C@H]1/C=C/O[C@@]2(C)Oc3c(C)c(O)c4c(O)c(c(/C=N/N5CCN(C)CC5)c(O)c4c3C2=O)NC(=O)/C(C)=C\C=C\[C@H](C)[C@H](O)[C@@H](C)[C@@H](O)[C@@H](C)[C@H](OC(C)=O)[C@@H]1C [Rifampin, rifampin] | – | 0 | – | – | 0 | the phage number increased/Ct value decreased | ΔCtRIF (Ct control−Ct drug) ([4]; […], drug, Tb inoculum and phage added at once, 24 h): −1 |
